Tests used:
human PDE3 = target: T1, human PDE3 (Homo sapiens, UniProt Q14432); experiment: Human PDE3 assay (platelets); type: biochemical; conditions: 10 μM concentration
T1 construct: Isolated human platelets are pre-incubated at 25° C; from tissue; host or cells: human platelets
Experimental: (§1) All compounds were dissolved in dimethyl sulfoxide (DMSO). Final concentration of the DMSO in all tests was 1% (v/v). Inhibition in all tests is considered preferred if it exceeds 50% at 10 μM concentration (or less).
PDE3 assay. Isolated human platelets are pre-incubated at 25° C. in Tris-HCl buffer containing magnesium ions for 15 minutes. 1.01 μM tritium labeled cyclic adenosine monophosphate (cAMP) is added as substrate, followed by incubation at 25° C. for 20 minutes. Percentage of inhibition is calculated by comparing the adenosine levels in supernatant which is formed from cAMP in treated versus control cells.

TxA2 receptor = target: T2, TxA2 receptor (Homo sapiens, UniProt P21731); experiment: Human thromboxane A2, TxA2, assay (SQ-29548 competition); type: binding; conditions: 10 μM concentration; HEK-293
T2 construct: expressed in transfected cells; host or cells: HEK-293
T2 sequence (P21731 1-343): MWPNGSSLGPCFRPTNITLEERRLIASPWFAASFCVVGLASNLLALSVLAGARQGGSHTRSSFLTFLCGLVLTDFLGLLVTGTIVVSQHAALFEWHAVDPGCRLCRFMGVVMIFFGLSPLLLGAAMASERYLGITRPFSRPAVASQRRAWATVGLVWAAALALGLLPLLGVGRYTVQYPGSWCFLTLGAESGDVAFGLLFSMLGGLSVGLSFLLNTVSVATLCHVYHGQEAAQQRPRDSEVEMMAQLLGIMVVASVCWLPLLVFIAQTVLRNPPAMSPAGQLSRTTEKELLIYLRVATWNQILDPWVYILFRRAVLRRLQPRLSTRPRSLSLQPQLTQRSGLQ
Experimental: as §1
TxA2 receptor is expressed in HEK-293 cell line. Compounds and radiolabelled competitor SQ-29548 are incubated for 30 minutes at 25° C. Level of bound SQ-29548 is measured by scintillation counting, and competition is calculated from the total amount of the bound SQ-29548. […] is an unstable lipid mediator involved in blood clotting, and immune processes.

human 5-LO = target: T3, human 5-LO (Homo sapiens, UniProt P09917); experiment: Human 5-Lipoxygenase, 5-LO, assay in peripheral mononuclear blood cells; type: cell-based; conditions: 10 μM concentration, LTB4 readout
T3 construct: Human peripheral mononuclear blood cells were isolated using Ficoll density separation; endogenous in cells; host or cells: human peripheral blood mononuclear cells
T3 sequence (P09917 1-674): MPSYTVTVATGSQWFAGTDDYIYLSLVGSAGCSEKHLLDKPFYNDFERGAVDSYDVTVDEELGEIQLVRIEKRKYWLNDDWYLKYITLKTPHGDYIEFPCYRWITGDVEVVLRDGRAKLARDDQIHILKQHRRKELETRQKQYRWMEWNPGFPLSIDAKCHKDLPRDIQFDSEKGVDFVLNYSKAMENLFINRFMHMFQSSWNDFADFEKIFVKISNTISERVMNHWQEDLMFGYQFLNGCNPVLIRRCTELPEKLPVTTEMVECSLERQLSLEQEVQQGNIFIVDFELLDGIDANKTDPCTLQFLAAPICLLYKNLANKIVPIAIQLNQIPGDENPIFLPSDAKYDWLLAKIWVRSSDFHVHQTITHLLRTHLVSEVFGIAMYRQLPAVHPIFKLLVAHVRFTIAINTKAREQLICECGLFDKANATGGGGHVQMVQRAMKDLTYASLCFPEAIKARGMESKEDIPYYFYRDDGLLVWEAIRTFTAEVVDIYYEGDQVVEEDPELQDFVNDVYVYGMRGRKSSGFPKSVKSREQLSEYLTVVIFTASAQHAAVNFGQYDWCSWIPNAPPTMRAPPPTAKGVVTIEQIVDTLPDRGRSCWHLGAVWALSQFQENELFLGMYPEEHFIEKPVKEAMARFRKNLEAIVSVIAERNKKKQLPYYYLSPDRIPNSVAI
Experimental: as §1
Human peripheral mononuclear blood cells were isolated using Ficoll density separation. Cells were incubated in Hanks Balanced Salt Solution (HBSS) with compounds for 15 minutes at 37° C. Substrate (arachidonic acid) was added in 20 μM final concentration and cells were incubated for another 15 minutes. LTB4 as a final product of arachidonic acid metabolism was measured using competitive enzyme immunoassay (See, e.g., Safayhi, H. et al. Planta Medica 2000, 66, 110-113) and percentage of inhibition was calculated from the levels of LTB4 in cell supernatant.

human PDE4 = experiment: Human PDE4 assay (U937); type: biochemical; conditions: 10 μM concentration
Experimental: as §1
PDE4 assay. PDE is implicated in diseases such as chronic obstructive pulmonary disease and neutrophilia. Human monocytic leukemia cell line U937 is pre-incubated at 25° C. in Tris-HCl buffer containing magnesium ions for 15 minutes. 1.01 μM tritium labeled cyclic adenosine monophosphate (cAMP) is added as substrate, followed by incubation at 25° C. for 20 minutes. Percentage of inhibition is calculated by comparing the adenosine levels in supernatant which is formed from cAMP in treated versus control cells.

CD1 mice = experiment: PMA induced ear oedema in CD1 mice; type: in vivo, mouse; conditions: topical, single dose of 250 or 100 μg/15 μL/ear; statistically significant vs positive control
Experimental: Male CD1 mice (Iffa Credo, France) weighing ˜35-40 g were randomly grouped (n=8 in vehicle treated test group, dexamethasone treated control group as well as in groups treated with compounds to be assayed). Test compounds, dexamethasone as well as vehicle (Trans-phase Delivery System, containing benzyl alcohol 10%, acetone 40% and isopropanol 50%) (all from Kemika, Croatia), were administered topically to the internal surface of the left ear thirty minutes prior to administration of phorbol 12-myristate 13-acetate (PMA) (Alexis biochemicals, USA). Test compounds were administered at a single dose of 250 or 100 μg/15 μL/ear and dexamethasone at a single dose of 50 μg/15 μL/ear. Thirty minutes later, 0.01% PMA solution in acetone was applied topically to the same area of each animal in a volume of 12 μL/ear. During the treatment and challenge, animals were anaesthetized by using inhalation anaesthesia. Six hours after the challenge, animals were euthanized by asphyxiation in 100% CO2 atmosphere. For assessing the auricular oedema, 8 mm discs were cut out of left and right auricular pinna and weighed. The degree of oedema was calculated by subtracting the weight of 8 mm disc of the untreated ear from that of the treated contralateral ear.

CysLT1 receptor = target: T4, CysLT1 receptor (Homo sapiens, UniProt Q9Y271); experiment: Human cysteinyl leukotriene receptor 1 (CysLT1) radioligand binding assay; conditions: 10 μM concentration; CHO-K1 cells
T4 construct: expressed in transfected cells; host or cells: CHO-K1
T4 sequence (Q9Y271 1-337): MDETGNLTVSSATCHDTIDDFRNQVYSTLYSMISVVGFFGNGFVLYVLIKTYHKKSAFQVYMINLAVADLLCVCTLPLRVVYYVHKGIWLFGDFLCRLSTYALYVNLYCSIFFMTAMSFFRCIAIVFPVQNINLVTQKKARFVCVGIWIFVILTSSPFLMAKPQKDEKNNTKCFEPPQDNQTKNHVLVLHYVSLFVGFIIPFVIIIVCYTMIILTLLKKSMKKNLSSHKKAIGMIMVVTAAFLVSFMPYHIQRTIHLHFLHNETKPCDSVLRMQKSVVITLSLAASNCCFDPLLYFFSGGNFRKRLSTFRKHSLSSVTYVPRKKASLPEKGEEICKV
Experimental: as §1
CysLT1 receptor is involved in immune diseases such as asthma, and has clinical significance as a point of intervention in asthma therapy. CysLT1 receptor is expressed in CHO-K1 cells (Chinese hamster ovary cells K1 clone). This is a competitive radioligand binding assay where substances compete with [^3H]-labeled Leulcotirene D4 (LTD4). Radioactive substance is measured with scintillation counting. Percentage of inhibition is calculated from the total radioactivity of the sample.

[1] = system: Human prostanoid receptor; experiment: Human prostanoid receptor assay ([3H]-PGD2 competition); type: binding; conditions: 10 μM concentration; CHO-K1
Experimental: as §1
Human prostanoid receptor is expressed in Chinese hamster ovary cell line, clone K1 (CHO-K1). Substances and radioactive competitor (tritium labelled Prostaglandin D2 in 1.7 nM concentration) are incubated with cells in HEPES buffer for 2 hours at 25° C. in the presence of manganese ions. Level of the bound PGD2 is measured by scintillation counting, and competition is calculated from comparing the total amount of the bound PGD2 in treated versus control cells. Prostanoids are involved in many physiological and pathological processes, from inflammation to pain.

IL-5 = experiment: Inhibition of IL-5 production by ConA stimulated mouse splenocytes; type: cell-based; conditions: 25 μM
Experimental: Spleen cell suspension was obtained from BALB/c mice and lymphocytes separated by gradient density centrifugation on Histopaque 1.083 on 400 g for 30 minutes. They were washed once in medium, counted and their number adjusted as 3×10^5/200 μL/well in 96 flat bottomed culture plate in RPMI supplemented with 10% fetal bovine serum. Cells were stimulated on cytokine production by adding concanavalinA (ConA) at 5 μg/mL final concentration. Unstimulated cells were cultured in medium alone. Stock solution was prepared out of testing compounds as 10 mM in DMSO. Final concentrations made in cell culture medium were tested when they had been added together with ConA. After 72 hours incubation period cell culture supernatants were collected. In each sample IL-4, IL-5, IL-10 and IFNγ were detected and quantified using enzyme linked immunosorbent assay (ELISA) specific for pointed cytokines (R&D Systems).
To calculate results, standard curve was made out of measured OD values for recombinant protein in known concentrations. Cytokine content in unknown samples was calculated out of OD values extrapolated from the standard curve.
Percentage of inhibition is calculated using formula:
% Inhibition=(1−cytokine concentration of sample/cytokine concentration of positive control)×100.

T1 sequence (Q14432 whole entry): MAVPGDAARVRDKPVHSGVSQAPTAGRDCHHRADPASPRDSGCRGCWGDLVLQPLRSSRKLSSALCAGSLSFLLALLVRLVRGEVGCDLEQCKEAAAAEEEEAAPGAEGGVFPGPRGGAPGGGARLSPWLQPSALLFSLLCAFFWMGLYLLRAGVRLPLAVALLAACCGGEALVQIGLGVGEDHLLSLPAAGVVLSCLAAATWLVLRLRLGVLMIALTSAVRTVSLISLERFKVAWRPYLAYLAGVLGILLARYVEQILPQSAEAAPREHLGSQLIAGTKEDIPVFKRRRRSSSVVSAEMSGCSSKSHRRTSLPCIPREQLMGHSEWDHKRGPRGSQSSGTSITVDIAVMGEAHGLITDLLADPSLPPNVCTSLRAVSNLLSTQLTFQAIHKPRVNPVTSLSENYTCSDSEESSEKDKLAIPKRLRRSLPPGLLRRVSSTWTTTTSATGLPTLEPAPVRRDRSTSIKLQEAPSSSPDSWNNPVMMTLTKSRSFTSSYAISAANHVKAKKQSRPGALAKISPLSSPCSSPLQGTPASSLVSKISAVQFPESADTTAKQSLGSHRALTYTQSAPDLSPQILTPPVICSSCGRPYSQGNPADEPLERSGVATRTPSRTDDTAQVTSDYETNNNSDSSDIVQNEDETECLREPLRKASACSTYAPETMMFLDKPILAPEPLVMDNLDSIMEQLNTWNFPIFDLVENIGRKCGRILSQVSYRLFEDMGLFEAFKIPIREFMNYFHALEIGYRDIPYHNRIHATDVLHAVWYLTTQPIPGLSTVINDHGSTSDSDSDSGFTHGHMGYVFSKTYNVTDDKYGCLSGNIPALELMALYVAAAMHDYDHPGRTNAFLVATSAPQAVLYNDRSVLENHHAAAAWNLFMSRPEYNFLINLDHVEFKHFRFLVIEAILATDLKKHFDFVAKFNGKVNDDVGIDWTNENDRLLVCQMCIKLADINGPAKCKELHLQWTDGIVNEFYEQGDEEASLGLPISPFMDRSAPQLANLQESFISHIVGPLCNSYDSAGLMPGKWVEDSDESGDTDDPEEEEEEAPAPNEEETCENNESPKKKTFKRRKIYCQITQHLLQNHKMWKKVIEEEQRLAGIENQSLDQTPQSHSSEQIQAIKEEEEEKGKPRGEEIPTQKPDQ

In the case of `CCc1cccc2c(O)c(C(C(C)=O)c3c(O)c4cccc(CC)c4oc3=O)c(=O)oc12` [Example 17], the “inhibition of human PDE3 activity” value (human PDE3) is reported as “significantly inhibited”, the “TxA2 receptor, competition with SQ-29548” value (TxA2 receptor) is reported as “significantly relevant activity” and the “inhibition of human 5-LO” value (human 5-LO) is reported as “significantly relevant activity”. For the same compound, the “inhibition of human PDE4 activity” value (human PDE4) was “significantly inhibited”.

`CC(=O)C(c1c(O)c2cc(Cl)c(C)cc2oc1=O)c1c(O)c2cc(Cl)c(C)cc2oc1=O` [Example 25] was tested, and the “suppression of ear oedema” value (CD1 mice) was “considered active”.

`CCc1ccc2oc(=O)c(C(C(C)=O)c3c(O)c4cc(CC)ccc4oc3=O)c(O)c2c1` [Example 26] was tested, and the “suppression of ear oedema” value (CD1 mice) was “considered active”.

For `Cc1cc2oc(=O)c(C(CO)c3c(O)c4cc(C)c(C)cc4oc3=O)c(O)c2cc1C` [Example 28], the “suppression of ear oedema” value (CD1 mice) was “considered active”.

`CCc1ccc2oc(=O)c(C(CO)c3c(O)c4cc(CC)ccc4oc3=O)c(O)c2c1` [Example 29] was tested, and the “suppression of ear oedema” value (CD1 mice) was “considered active”.

In the case of `Cc1cc2oc(=O)c(C(C(=O)OCCO)c3c(O)c4cc(C)c(C)cc4oc3=O)c(O)c2cc1C` [Example 51], the “suppression of ear oedema” value (CD1 mice) is reported as “considered active”.

With `Cc1cc2oc(=O)c(C(C(=O)OCCO)c3c(O)c4cc(Cl)c(C)cc4oc3=O)c(O)c2cc1Cl` [Example 54] the “suppression of ear oedema” value (CD1 mice) was “considered active”.

`O=c1oc2ccccc2c(O)c1C(c1cccc(Cl)c1)c1c(O)c2ccccc2oc1=O` [Example 66] was tested, and the “suppression of ear oedema” value (CD1 mice) was “considered active”.

For `CCOC(=O)C(c1c(O)c2cccc(C(C)C)c2oc1=O)c1c(O)c2cccc(C(C)C)c2oc1=O` [Example 292], the “suppression of ear oedema” value (CD1 mice) was “considered active”.

In the case of `O=c1oc2ccccc2c(O)c1C(c1ccc2c(c1)OCO2)c1c(O)c2ccccc2oc1=O` [Example 349], the “suppression of ear oedema” value (CD1 mice) is reported as “considered active”, the “CysLT1 receptor, competition with [3H]-LTD4” value (CysLT1 receptor) is reported as “significantly relevant activity” and the “TxA2 receptor, competition with SQ-29548” value (TxA2 receptor) is reported as “significantly relevant activity”. The “inhibition of human 5-LO” value (human 5-LO) was “significantly relevant activity”.

In the case of `O=c1oc2ccccc2c(O)c1C(c1cnc2ccccc2c1)c1c(O)c2ccccc2oc1=O` [Example 351], the “human prostanoid receptor, competition with tritium labelled PGD2” value [1] is reported as “significantly relevant activity”, the “suppression of ear oedema” value (CD1 mice) is reported as “considered active” and the “inhibition of human PDE3 activity” value (human PDE3) is reported as “significantly inhibited”. For the same compound, the “CysLT1 receptor, competition with [3H]-LTD4” value (CysLT1 receptor) was “significantly relevant activity”, the “inhibition of human 5-LO” value (human 5-LO) was “significantly relevant activity” and the “inhibition of human PDE4 activity” value (human PDE4) was “significantly inhibited”.

With `CC(C)c1cccc2c(O)c(C(c3c(O)c4cccc(C(C)C)c4oc3=O)C(C)O)c(=O)oc12` (stereo not drawn) [Example 364] the “suppression of ear oedema” value (CD1 mice) was “considered active” and the “inhibition of IL-5 production” value (IL-5) was “significantly inhibited”.

Reference: patent publication US20080153872A1, “Bis-(Coumarin) Compounds With Anti-Inflammatory Activity” (priority 2005, published 2008)
